Assay results from ChEMBL document CHEMBL1671662, “In vitro activities of telavancin and six comparator agents against anaerobic bacterial isolates” (2009).

What was measured:
Type in all cases: functional
Clostridium tertium = experiment: Antibacterial activity against Clostridium tertium by CLSI M11-A6 agar dilution method
Ruminococcus sp. = experiment: Antibacterial activity against Ruminococcus sp. by CLSI M11-A6 agar dilution method
Ruminococcus lactaris = experiment: Antibacterial activity against Ruminococcus lactaris by CLSI M11-A6 agar dilution method
Clostridium spiroforme = experiment: Antibacterial activity against Clostridium spiroforme by CLSI M11-A6 agar dilution method; conditions: Thomasclavelia spiroformis
[1] = test system: Prevotella melaninogenica; experiment: Antibacterial activity against Prevotella melaninogenica by CLSI M11-A6 agar dilution method
Parabacteroides merdae = experiment: Antibacterial activity against Parabacteroides merdae by CLSI M11-A6 agar dilution method
Flavonifractor plautii = experiment: Antibacterial activity against Clostridium orbiscindens by CLSI M11-A6 agar dilution method
Bifidobacterium bifidum = experiment: Antibacterial activity against Bifidobacterium bifidum by CLSI M11-A6 agar dilution method
[2] = test system: Paraclostridium bifermentans; experiment: Antibacterial activity against Clostridium bifermentans by CLSI M11-A6 agar dilution method
Prevotella buccae = experiment: Antibacterial activity against Prevotella buccae by CLSI M11-A6 agar dilution method; conditions: Segatella buccae
Bifidobacterium dentium = experiment: Antibacterial activity against Bifidobacterium dentium by CLSI M11-A6 agar dilution method
Prevotella corporis = experiment: Antibacterial activity against Prevotella corporis by CLSI M11-A6 agar dilution method
Prevotella disiens = experiment: Antibacterial activity against Prevotella P disiens by CLSI M11-A6 agar dilution method
Anaerococcus tetradius = experiment: Antibacterial activity against Anaerococcus tetradius by CLSI M11-A6 agar dilution method
[3] = test system: Catenibacterium mitsuokai; experiment: Antibacterial activity against Catenibacterium mitsuokai by CLSI M11-A6 agar dilution method
Clostridium butyricum = experiment: Antibacterial activity against Clostridium butyricum by CLSI M11-A6 agar dilution method
Prevotella intermedia = experiment: Antibacterial activity against Prevotella intermedia by CLSI M11-A6 agar dilution method
[4] = test system: Ruminococcus flavefaciens; experiment: Antibacterial activity against Ruminococcus flavefaciens by CLSI M11-A6 agar dilution method
[5] = test system: Clostridium celerecrescens; experiment: Antibacterial activity against Clostridium celerecrescens by CLSI M11-A6 agar dilution method; conditions: Lacrimispora celerecrescens
[Clostridium] innocuum = Antibacterial activity against Clostridium innocuum by CLSI M11-A6 agar dilution method
Clostridium perfringens = experiment: Antibacterial activity against Clostridium perfringens by CLSI M11-A6 agar dilution method
[6] = test system: Paeniclostridium sordellii; experiment: Antibacterial activity against Clostridium sordellii by CLSI M11-A6 agar dilution method; conditions: Paraclostridium sordellii
Ruminococcus gnavus = experiment: Antibacterial activity against Ruminococcus gnavus by CLSI M11-A6 agar dilution method; conditions: Mediterraneibacter gnavus
[7] = test system: Streptococcus constellatus; experiment: Antibacterial activity against Streptococcus constellatus by CLSI M11-A6 agar dilution method
[8] = test system: Bacteroides thetaiotaomicron; experiment: Antibacterial activity against Bacteroides thetaiotaomicron by CLSI M11-A6 agar dilution method
Bifidobacterium longum = experiment: Antibacterial activity against Bifidobacterium longum by CLSI M11-A6 agar dilution method
Clostridium bartlettii = experiment: Antibacterial activity against Clostridium bartlettii by CLSI M11-A6 agar dilution method; conditions: Intestinibacter bartlettii
[9] = test system: Peptoniphilus asaccharolyticus; experiment: Antibacterial activity against Peptoniphilus asaccharolyticus by CLSI M11-A6 agar dilution method
Ruminococcus torques = experiment: Antibacterial activity against Ruminococcus torques by CLSI M11-A6 agar dilution method; conditions: Mediterraneibacter torques
Bilophila wadsworthia = experiment: Antibacterial activity against Bilophila wadsworthia by CLSI M11-A6 agar dilution method
Bifidobacterium breve = experiment: Antibacterial activity against Bifidobacterium breve by CLSI M11-A6 agar dilution method
Clostridium beijerinckii = experiment: Antibacterial activity against Clostridium beijerinckii by CLSI M11-A6 agar dilution method
Parvimonas micra = experiment: Antibacterial activity against Peptostreptococcus micros by CLSI M11-A6 agar dilution method
[10] = test system: Streptococcus intermedius; experiment: Antibacterial activity against Streptococcus intermedius by CLSI M11-A6 agar dilution method
[11] = test system: Propionibacterium propionicum; experiment: Antibacterial activity against Propionibacterium propionicus by CLSI M11-A6 agar dilution method; conditions: Arachnia propionica
Clostridium leptum = experiment: Antibacterial activity against Clostridium leptum by CLSI M11-A6 agar dilution method
Phocaeicola vulgatus = experiment: Antibacterial activity against Bacteroides vulgatus by CLSI M11-A6 agar dilution method
Bacteroides fragilis = experiment: Antibacterial activity against Bacteroides fragilis by CLSI M11-A6 agar dilution method
[12] = test system: Peptostreptococcus anaerobius; experiment: Antibacterial activity against Peptostreptococcus anaerobius by CLSI M11-A6 agar dilution method
[13] = test system: Enterocloster clostridioformis; experiment: Antibacterial activity against Clostridium clostridioforme by CLSI M11-A6 agar dilution method
Clostridium glycolicum = experiment: Antibacterial activity against Clostridium glycolicum by CLSI M11-A6 agar dilution method; conditions: Terrisporobacter glycolicus
Clostridium scindens = experiment: Antibacterial activity against Clostridium scindens by CLSI M11-A6 agar dilution method
Odoribacter splanchnicus = experiment: Antibacterial activity against Bacteroides splanchnicus by CLSI M11-A6 agar dilution method

CCCCCCCCCCNCCN[C@@]1(C)C[C@H](O[C@H]2[C@H](Oc3c4cc5cc3Oc3ccc(cc3Cl)[C@@H](O)[C@@H](NC(=O)[C@@H](CC(C)C)NC)C(=O)N[C@@H](CC(N)=O)C(=O)N[C@H]5C(=O)N[C@H]3C(=O)N[C@H](C(=O)N[C@H](C(=O)O)c5cc(O)c(CNCP(=O)(O)O)c(O)c5-c5cc3ccc5O)[C@H](O)c3ccc(c(Cl)c3)O4)O[C@H](CO)[C@@H](O)[C@@H]2O)O[C@@H](C)[C@H]1O [TELAVANCIN]
> 64 µg/mL: MIC (Parabacteroides merdae) | MIC50 (Parabacteroides merdae) | MIC90 (Parabacteroides merdae) | MIC50 [8] | MIC90 [8] | MIC (Bilophila wadsworthia) | MIC50 (Bilophila wadsworthia) | MIC90 (Bilophila wadsworthia) | MIC (Phocaeicola vulgatus) | MIC50 (Phocaeicola vulgatus) | MIC90 (Phocaeicola vulgatus) | MIC (Bacteroides fragilis) | MIC50 (Bacteroides fragilis) | MIC90 (Bacteroides fragilis) | MIC50 (Odoribacter splanchnicus) | MIC90 (Odoribacter splanchnicus)
2 µg/mL: MIC50 ([Clostridium] innocuum) | MIC90 ([Clostridium] innocuum)
0.5 µg/mL: MIC90 (Bifidobacterium bifidum) | MIC90 (Bifidobacterium dentium) | MIC90 [3] | MIC90 (Bifidobacterium longum) | MIC90 (Bifidobacterium breve) | MIC90 [11]
0.25 µg/mL: MIC90 (Clostridium tertium) | MIC90 (Ruminococcus sp.) | MIC90 (Clostridium spiroforme) | MIC90 (Flavonifractor plautii) | MIC90 [2] | MIC90 (Anaerococcus tetradius) | MIC90 (Clostridium butyricum) | MIC90 [5] | MIC90 (Clostridium perfringens) | MIC90 [6] | MIC90 (Clostridium bartlettii) | MIC90 [9] | MIC90 (Clostridium beijerinckii) | MIC90 (Parvimonas micra) | MIC90 (Clostridium leptum) | MIC90 [12] | MIC90 (Clostridium glycolicum) | MIC90 (Clostridium scindens)
≤ 0.12 µg/mL: MIC50 (Clostridium tertium) | MIC50 (Ruminococcus sp.) | MIC50 (Ruminococcus lactaris) | MIC90 (Ruminococcus lactaris) | MIC50 (Clostridium spiroforme) | MIC50 (Flavonifractor plautii) | MIC50 (Bifidobacterium bifidum) | MIC50 [2] | MIC50 (Bifidobacterium dentium) | MIC50 (Anaerococcus tetradius) | MIC50 [3] | MIC50 (Clostridium butyricum) | MIC50 [4] | MIC90 [4] | MIC50 [5] | MIC50 (Clostridium perfringens) | MIC50 [6] | MIC (Ruminococcus gnavus) | MIC50 (Ruminococcus gnavus) | MIC90 (Ruminococcus gnavus) | MIC50 [7] | MIC90 [7] | MIC50 (Bifidobacterium longum) | MIC50 (Clostridium bartlettii) | MIC50 [9] | MIC50 (Ruminococcus torques) | MIC90 (Ruminococcus torques) | MIC50 (Bifidobacterium breve) | MIC50 (Clostridium beijerinckii) | MIC50 (Parvimonas micra) | MIC50 [10] | MIC90 [10] | MIC50 [11] | MIC50 (Clostridium leptum) | MIC50 [12] | MIC50 (Clostridium glycolicum) | MIC50 (Clostridium scindens)
8 µg/mL: MIC50 [1] | MIC50 (Prevotella buccae) | MIC50 (Prevotella corporis) | MIC50 (Prevotella disiens) | MIC50 (Prevotella intermedia) | MIC90 [13]
4 µg/mL: MIC50 [13]
64 µg/mL: MIC90 [1] | MIC90 (Prevotella buccae) | MIC90 (Prevotella corporis) | MIC90 (Prevotella disiens) | MIC90 (Prevotella intermedia)
